Data taken from US11291667B2, “Combination therapy involving diaryl macrocyclic compounds” (TURNING POINT THERAPEUTICS, INC., priority 2017, dated 2022).
Like-named read-outs stand apart in the source and are kept apart here.

Assays:
phosphorylated AKT = assay: Immunoblotting for cellular kinase phosphorylation; assay type: cell-based, Human; settings: NCI-H1975 cells, 4 hours, 1 μM concentration
Description: (§2) NSCLC NCI-H1975 cells (harboring EGFR L858R/T790M double mutations) were cultured in RPMI medium, supplemented with 10% fetal bovine serum and 100 U/mL of penicillin/streptomycin. […] Cells were collected after treatment and lysed in RIPA buffer (50 mM Tris, pH 7.4, 150 mM NaCl, 1% NP-40, 0.5% Deoxycholate, 0.1% SDS) supplemented with 10 mM EDTA, 1× Halt protease and phosphatase inhibitors (Thermo Scientific). […] Membranes were incubated with chemiluminescent substrate for 5 min at room temperature (SuperSignal West Femto, Thermo Scientific). The chemiluminescent images were acquired with a C-DiGit Imaging System (LI-COR Biosciences).

phosphorylated ERK = assay: Immunoblotting for cellular kinase phosphorylation; assay type: cell-based, Human; settings: NCI-H1975 cells, 4 hours, 1 μM concentration
Description: as §2

JAK2 = JAK2 (Homo sapiens (Human), UniProt O60674); assay: Enzymatic kinase inhibition assay 1 (Eurofins KinaseProfiler); assay type: biochemical; settings: kinase activity remaining as % of DMSO control; 1 μM compound; ATP 10 μM
Description: (§1) The enzymatic kinase inhibition against FAK, SRC and JAK2 were evaluated at Eurofins using the Erofins KinaseProfiler™ panel. All compounds were prepared to a working stock of 50× final assay concentration in 100% DMSO. Where appropriate, more concentrated stocks were diluted manually to 50× using 100% DMSO. Compounds supplied as powders were reconstituted to a 10 mM stock in 100% DMSO before further dilution to 50×. The required volume of the 50× stock of test compound was added to the assay well, before a reaction mix containing the enzyme and substrate was added. The reaction was initiated by the addition of ATP at 10 μM concentration. There was no pre-incubation of the compound with the enzyme/substrate mix prior to ATP addition. Data are handled using a custom built in-house analysis software. Results are expressed as kinase activity remaining, as a percentage of the DMSO control. This is calculated using the following formula: […].

FAK = FAK (Homo sapiens (Human), UniProt Q05397); assay: as above; assay type: biochemical; settings: kinase activity remaining as % of DMSO control; 1 μM compound; ATP 10 μM
Description: as §1

SRC = SRC (Homo sapiens (Human), UniProt P12931); assay: as above; assay type: biochemical; settings: kinase activity remaining as % of DMSO control; 1 μM compound; ATP 10 μM
Description: as §1

phosphorylated STAT3 = assay: Immunoblotting for cellular kinase phosphorylation; assay type: cell-based, Human; settings: NCI-H1975 cells, 4 hours, 1 μM concentration
Description: as §2

phosphorylated paxillin = assay: Immunoblotting for cellular kinase phosphorylation; assay type: cell-based, Human; settings: NCI-H1975 cells, 4 hours; for inhibition of phosphorylation of paxillin: 1 μM concentration
Description: as §2

phosphorylated EGFR = assay: Immunoblotting for cellular kinase phosphorylation; assay type: cell-based, Human
NCI-H1975 cells = assay: NCI-H1975 lung cancer cell proliferation assay (CellTiter-Glo); assay type: cell-based, Human; settings: for IC50: Homo sapiens, NCI-H1975, 72 h; for inhibition of NCI-H1975 cell proliferation (in words): NCI-H1975 cells, 72 hours
Description: Cell proliferation was measured using CellTiter-Glo luciferase-based ATP detection assay (Promega) following the manufactures's protocol. IC50 determinations were performed using GraphPad Prism software (GraphPad, Inc., San Diego, Calif.).

[1] = read-out: anti-proliferation IC50
[2] = read-out: anti-proliferation IC50 of EGFR inhibitor with Compound 1 at 3 μM

FAK, sequence (Q05397 whole entry): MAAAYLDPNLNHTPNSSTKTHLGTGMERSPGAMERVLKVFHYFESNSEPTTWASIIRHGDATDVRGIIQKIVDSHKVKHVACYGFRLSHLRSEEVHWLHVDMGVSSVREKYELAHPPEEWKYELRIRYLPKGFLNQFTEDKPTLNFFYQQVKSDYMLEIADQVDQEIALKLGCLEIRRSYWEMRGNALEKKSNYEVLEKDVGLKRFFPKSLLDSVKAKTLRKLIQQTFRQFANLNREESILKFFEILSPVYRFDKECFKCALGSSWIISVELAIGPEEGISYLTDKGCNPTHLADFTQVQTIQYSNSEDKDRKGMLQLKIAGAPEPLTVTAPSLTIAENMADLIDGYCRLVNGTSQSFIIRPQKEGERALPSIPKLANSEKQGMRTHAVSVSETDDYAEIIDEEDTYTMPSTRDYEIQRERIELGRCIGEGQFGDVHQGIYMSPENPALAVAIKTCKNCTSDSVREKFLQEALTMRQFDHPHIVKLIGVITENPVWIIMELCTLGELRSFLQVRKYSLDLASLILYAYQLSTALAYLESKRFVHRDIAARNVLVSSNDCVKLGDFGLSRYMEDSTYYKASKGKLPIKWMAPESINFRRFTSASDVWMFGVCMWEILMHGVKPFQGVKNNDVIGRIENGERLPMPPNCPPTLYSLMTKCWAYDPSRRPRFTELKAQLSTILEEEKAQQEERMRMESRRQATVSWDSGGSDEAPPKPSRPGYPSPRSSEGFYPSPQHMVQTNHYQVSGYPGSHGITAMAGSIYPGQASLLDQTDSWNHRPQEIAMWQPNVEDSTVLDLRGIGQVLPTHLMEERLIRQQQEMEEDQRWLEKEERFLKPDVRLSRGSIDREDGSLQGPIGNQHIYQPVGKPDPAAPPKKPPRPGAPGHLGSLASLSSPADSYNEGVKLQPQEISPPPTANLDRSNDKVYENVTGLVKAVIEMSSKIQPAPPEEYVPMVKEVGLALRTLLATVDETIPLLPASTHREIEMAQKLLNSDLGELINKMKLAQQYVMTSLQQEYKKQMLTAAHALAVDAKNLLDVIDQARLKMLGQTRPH
JAK2, sequence (O60674 whole entry): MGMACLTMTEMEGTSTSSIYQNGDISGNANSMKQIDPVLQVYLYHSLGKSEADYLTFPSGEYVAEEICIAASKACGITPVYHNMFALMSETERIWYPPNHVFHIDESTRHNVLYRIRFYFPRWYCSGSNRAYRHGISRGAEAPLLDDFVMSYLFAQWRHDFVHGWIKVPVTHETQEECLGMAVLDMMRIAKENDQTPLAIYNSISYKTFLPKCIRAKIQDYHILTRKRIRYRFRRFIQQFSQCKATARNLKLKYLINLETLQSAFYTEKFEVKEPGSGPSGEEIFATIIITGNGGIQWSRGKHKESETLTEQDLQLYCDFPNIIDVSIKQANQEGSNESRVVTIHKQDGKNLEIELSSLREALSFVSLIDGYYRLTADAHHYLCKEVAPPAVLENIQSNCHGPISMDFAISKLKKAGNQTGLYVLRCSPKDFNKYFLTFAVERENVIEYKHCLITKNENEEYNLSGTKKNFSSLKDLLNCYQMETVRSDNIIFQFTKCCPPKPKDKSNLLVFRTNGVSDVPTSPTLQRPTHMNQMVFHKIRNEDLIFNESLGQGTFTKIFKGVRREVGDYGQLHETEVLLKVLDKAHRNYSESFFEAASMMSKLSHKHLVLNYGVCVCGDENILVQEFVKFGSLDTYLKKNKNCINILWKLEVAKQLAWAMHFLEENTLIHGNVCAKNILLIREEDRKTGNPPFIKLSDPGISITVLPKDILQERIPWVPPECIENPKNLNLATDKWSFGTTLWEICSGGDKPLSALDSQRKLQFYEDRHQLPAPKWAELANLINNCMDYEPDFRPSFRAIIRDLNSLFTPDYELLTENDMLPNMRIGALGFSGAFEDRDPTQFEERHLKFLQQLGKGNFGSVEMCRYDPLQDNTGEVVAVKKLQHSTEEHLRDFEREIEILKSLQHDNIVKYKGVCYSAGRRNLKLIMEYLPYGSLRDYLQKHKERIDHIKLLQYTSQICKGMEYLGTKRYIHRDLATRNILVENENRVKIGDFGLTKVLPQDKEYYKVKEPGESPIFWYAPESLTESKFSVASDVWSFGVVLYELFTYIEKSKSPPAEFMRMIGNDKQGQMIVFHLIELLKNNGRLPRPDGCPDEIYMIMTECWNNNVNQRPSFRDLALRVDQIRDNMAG
SRC, sequence (P12931 whole entry, looked up): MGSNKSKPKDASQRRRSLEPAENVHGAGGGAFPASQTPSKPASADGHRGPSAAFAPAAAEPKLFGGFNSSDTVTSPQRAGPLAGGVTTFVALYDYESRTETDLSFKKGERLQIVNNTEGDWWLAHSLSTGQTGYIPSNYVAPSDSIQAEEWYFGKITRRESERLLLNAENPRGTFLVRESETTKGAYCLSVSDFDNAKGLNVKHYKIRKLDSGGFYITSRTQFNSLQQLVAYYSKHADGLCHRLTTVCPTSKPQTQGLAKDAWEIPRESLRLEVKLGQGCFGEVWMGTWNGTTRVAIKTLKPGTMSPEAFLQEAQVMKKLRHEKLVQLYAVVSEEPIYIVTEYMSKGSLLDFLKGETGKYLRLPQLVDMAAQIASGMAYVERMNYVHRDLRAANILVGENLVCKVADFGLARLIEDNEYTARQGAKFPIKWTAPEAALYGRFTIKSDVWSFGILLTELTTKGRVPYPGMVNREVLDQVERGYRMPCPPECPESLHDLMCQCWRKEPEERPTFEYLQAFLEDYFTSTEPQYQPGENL

Compound	inhibition of phosphorylation of AKT (phosphorylated AKT)	inhibition of phosphorylation of ERK (phosphorylated ERK)	% remaining JAK2 at 1 μM testing comp. (JAK2)	% remaining FAK at 1 μM testing comp. (FAK)	% remaining SRC at 1 μM testing comp. (SRC)	inhibition of phosphorylation of STAT3 (phosphorylated STAT3)	inhibition of phosphorylation of paxillin (phosphorylated paxillin)	inhibition of phosphorylation of SRC/FAK substrate paxillin (phosphorylated paxillin; dose response (FIG. 11))	inhibition of phosphorylation of EGFR (phosphorylated EGFR; NCI-H1975 cells, 4 hours, 1 μM concentration)	inhibition of EGFR phosphorylation (phosphorylated EGFR; NCI-H1975 cells, 4 hours, dose response (FIG. 11))	IC50 (NCI-H1975 cells; [1])	inhibition of NCI-H1975 cell proliferation (in words) (NCI-H1975 cells)	IC50 (NCI-H1975 cells; [2])	inhibition of phosphorylation of EGFR (phosphorylated EGFR)	IC50 (NCI-H1975 cells; read-out: anti-proliferation IC50 (partial))
C[C@H]1CNC(=O)c2cnn3ccc(nc23)N[C@H](C)c2cc(F)ccc2O1 [Compound 1, (7S,13R)-11-fluoro-7,13-dimethyl-6,7,13,14-tetrahydro-1,15-ethenopyrazolo[4,3-f][1,4,8,10]benzoxatriazacyclotridecin-4(5H)-one]	minimum inhibition	minimum inhibition	0%	−1%	1%	significant inhibition	significant inhibition	dose-dependently inhibited	minimum inhibition	no inhibition	4000 nM	only partial inhibition activity	–	–	–
C[C@H]1Nc2ccn3ncc(c3n2)C(=O)NC[C@@H](O)COc2ccc(F)cc21 [Compound 2, (7R,14R)-12-fluoro-7-hydroxy-14-methyl-5,6,7,8,14,15-hexahydro-4H-1,16-ethenopyrazolo[4,3-g][1,5,9,11]benzoxatriazacyclotetradecin-4-one]	–	–	3%	−1%	2%	–	–	–	–	–	–	–	–	–	–
O=C1NCCCOc2ccc(F)cc2CCc2ccn3ncc1c3n2 [Compound 3, 12-fluoro-5,6,7,8,14,15-hexahydro-4H-1,16-ethenopyrazolo[4,3-g][1,5,9]benzoxadiazacyclotetradecin-4-one]	–	–	6%	−2%	8%	–	–	–	–	–	–	–	–	–	–
C#Cc1cccc(Nc2ncnc3cc(OCCOC)c(OCCOC)cc23)c1 [erlotinib]	minimum inhibition	minimum inhibition	–	–	–	minimum inhibition	minimum inhibition	–	–	–	6240 nM	not sensitive	1000 nM	–	–
C=CC(=O)Nc1cc(Nc2nccc(-c3cn(C)c4ccccc34)n2)c(OC)cc1N(C)CCN(C)C [osimertinib]	significant inhibition	significant inhibition	–	–	–	minimum inhibition	minimum inhibition	–	–	–	–	[…]	[…]	significant inhibition	[…]
